# Source: patent publication US20240252494A1, “Mechanotransduction Disruption Mediation in Skin Grafting Methods and Compositions for Use in Practicing the Same” (The Board of Trustees of the Leland Stanford Junior …, priority 2021, published 2024)
# Columns and labels:
# [1] = test system: tumor growth; conditions: in vivo; cited from earlier work
# [2] = test system: porcine STSG tissue
# Text: We developed a novel porcine STSG model using surgical techniques commonly applied for the clinical treatment of burn wounds and other soft-tissue defects. First, we created full-thickness excisional wounds measuring 25 cm^2 on the backs of adult red Duroc pigs, leaving the underlying muscle fascia intact. In the same surgery, we harvested thin STSG (0.01 in) from the same pig using a clinical-grade electric dermatome (Zimmer Biomet). First, the unwounded skin of the donor site was lubricated (Surgilube) and the dermatome was passed over the skin at a controlled rate. The resultant skin was placed on a Skin Graft Carrier (Dermacarrier II, Zimmer 00770800010) and slowly fed through a Skin Graft Mesher (Zimmer 7701) to create a mesh graft of 1:1.5 ratio (41). The grafts were carefully spread out on the graft carrier and placed onto the exposed muscle fascia of the wound beds. Skin staples (Covidien 8886803712) were used to secure the graft to the wound bed (about 5 staples per edge). The grafts were covered with three layers of petrolatum gauze (Xeroform, Covidien SH84-433605) to prevent them from drying out and also to prevent bacterial infection. Bolster dressings were prepared by cutting 5.5 cm×5.5 cm squares from VAC Granufoam (Small Dressing Kit, Acelity M8275065) and heavily secured on top of the gauze and STSG with additional skin staples. […]
# [3] = test system: human fibroblasts; assay: 3D organotypic scar culture system (strained collagen scaffolds), immunofluorescent staining; assay type: cell-based; conditions: 10% strain, 48 hours, 10 µM FAKI, vs strained fibroblasts
# Text: (§1) To determine whether the increased mechanical strain experienced by cells within the healing STSG would trigger the same fibroblast transcriptional states observed in vivo, we used our previously published three-dimensional (3D) organotypic scar culture system that permits the precise manipulation of strain (and therefore stress) without any other potential confounding factors (27, 98). Fibroblasts were first isolated from human skin and seeded within 3D collagen scaffolds (FIG. 8A). These scaffolds were then subjected to either 10% strain (Strain, S), 10% strain with FAK inhibition (Strain+FAKI, S+FAKI), or 0% strain (No Strain, NS) as a control (FIG. 8, A to C). Because it seemed likely that healing tissue would not be subjected to maximal strains (due to pain), we used a strain profile of 10% to represent the average wound strain environment.
# We isolated and cultured dermal fibroblasts from both healthy human and porcine skin samples. Fibroblasts were isolated by mechanical and enzymatic digestion and cultured under standard conditions until passage 3. Following our previously published protocols (98), we used the primary fibroblasts to create fibroblast-populated collagen hydrogels with a concentration of 200 k cells/mL and 2 mg/mL collagen (PureCol, Advanced Biomatrix 5005). In brief, collagen scaffolds were formulated in a cruciform shape with sponges in the arms and cultured in petri dishes on top of a layer (˜0.5 cm) of cured polydimethylsiloxane (PDMS; Sylgard 184 Silicone Elastomer Kit; Dow Corning). Pins were pushed through the sponges in the hydrogel cruciform arms to constrain the scaffolds during an initial pre-culture period (24h). Then, we subjected the scaffolds to either 0% strain (no strain) or 10% equibiaxial strain (either with or without FAKI) for an additional 48 hours. Strained but untreated cells were given 10 μL DMSO in 20 mL culture media, while strained and treated cells were administered 10 μL of 20 mM FAKI in DMSO in 20 mL culture media to achieve a final concentration of 10 µM FAKI.
# We used a suture to paint nine Titanium(IV) oxide dots (Sigma-Aldrich 248576) on the surface of the central region of the gel to track and quantify the imposed strains. We used a digital camera to image the markers before and after strain. Strain was imposed by removing the pins, manually extending the hydrogel cruciform arms, and pushing the pins back through the arms to hold the scaffold in a new, extended position. Photographs of the marker positions were used to compute a single homogenous deformation gradient tensor F that provided the least-squares best fit mapping of the 9 marker positions from the undeformed to deformed positions by solving the overdetermined matrix equation: […]
# [4] = test system: full-thickness excisional wounds with STSG; assay: Histological analysis of collagen architecture of porcine STSG; assay type: in vivo, red Duroc pigs
# Experimental: (§2) STSG were not disturbed during the first 3 days.
# No patient identifying information was retained with the samples.
# Masson's Trichrome staining and Picrosirius Red staining were performed, and images were captured with a Leica DM5000 B upright microscope. For Picrosirius Red, polarized light microscopy was used to obtain 40× magnification images and analysis of fiber alignment was performed using CurveAlign (109) and MatFiber (98, 110). The strength of alignment ranges from a value of 0 (completely random fiber alignment) to 1 (completely aligned fibers). Quantification of individual collagen fiber parameters (fiber length, width) was performed using CT-FIRE (http://loci.wisc.edu/software/ctfire) (109, 113).
# [5] = test system: full-thickness excisional wounds with STSG; assay: Cutometer viscoelastic analysis of STSG biomechanical properties; assay type: in vivo, red Duroc pigs; conditions: vs untreated STSG; P<0.05
# Text: as §2
# (§3) After three weeks, dressings (and hydrogels) were changed twice per week until month 3. STSG were no longer bolster dressed and instead a conventional dressing was used (Telfa+Tegaderm). Each STSG within the animal was biopsied for histological and molecular evaluation at the end of the study.
# A cutometer (Dual MPA 580, Courage+Khazaka Electronic) was used to evaluate the firmness and elasticity of the healing tissue and unwounded skin. Cutometer assessment is one of the most common instruments to measure viscoelasticity in human patients (111, 112), measuring the vertical deformation of the skin surface by applying negative pressure (suction) through a small circular diameter (8 mm probe). Deformation (suction) for two seconds followed by two seconds of relaxation (no suction) was applied three times and averaged. The firmness 0 was measured as the amplitude at the end of the suction phase (RO metric) and normalized against the values of STSG treated with blank hydrogels (111). Increased deformation to a consistent negative pressure corresponds to less firm tissue, more similar to unwounded skin.
# [6] = test system: full-thickness excisional wounds with STSG; assay: Scar contracture analysis in porcine STSG model; assay type: in vivo, red Duroc pigs
# Text: as §2, §3
# STSG were monitored photographically at each dressing change. Each image was taken with a ruler or standard measurement device to standardize measurements. Scar areas were traced over time in ImageJ. Contracture was measured as change in scar area, normalized to the area of the STSG during the first dressing change. Two independent evaluators measured scar area, and the resultant scar area was the average of the two measurements.
# [7] = test system: porcine STSG cells; assay: scRNA-seq of porcine STSG tissue; assay type: in vivo, red Duroc pigs; conditions: for number of DEGs between untreated STSG and STSG treated with FAKI: POD7
# Experimental: We obtained a 1 cm^2 tissue from the center of our STSG groups or unwounded skin. The tissue was thoroughly cut into small 1 mm^2 pieces using a scalpel before then being carefully minced with fine scissors. To maximize cell capture for scRNA-seq, diligent care was made to cut the tissue into a fine tissue paste consistency. An increased enzyme concentration and volume of 30 ml of 1 mg/mL Liberase (Sigma-Aldrich 5401127001) in PBS were used to fully break down the dense, fibrotic porcine extracellular matrix. The cell-digest suspensions were constantly agitated (rotated) for a total of 2 hours at 37° C. Tissue solution was subjected to maximum speed vortex mixer (VWR) for 30 seconds before being placed in the oven, after 1 hour, and again after total of 2 hours to physically disrupt any tissue that had clumped together and maximize the tissue surface area exposed to enzymatic digestion at all times.
# The tissue solution was filtered through a 100 μm Nylon cell filter (Fisher-Scientific 08-771-19) into a new conical tube, and 20 mL of 10% FBS DMEM was added through the filter to quench the enzymatic reaction and release any cells trapped within the filter, maximizing downstream cell yield. Solutions were spun at 350×g for 5 min at 4° C. in a centrifuge, supernatant was aspirated, and cells were then resuspended in 20 mL 10% FBS DMEM and passed through a 70 μm Nylon cell filter. A 20 mL solution of 10% FBS in PBS (FACS Buffer) was added through the filter to wash the remaining cells.
# This cellular suspension was then resuspended in a concentrated solution and submitted for droplet-based microfluidic single cell RNA sequencing (scRNA-seq) at the Stanford Functional Genomics Facility (SFGF) using the 10× Chromium Single Cell platform (Single Cell 3′ v3, 10× Genomics, USA). The cell suspension, reverse transcription master mix, and partitioning oil was loaded onto a single cell chip, processed on the Chromium Controller, and reverse transcription was performed at 53° C. for 45 min. cDNA was amplified for 12 cycles total (BioRad C1000 Touch thermocycler) with cDNA size selected using SpriSelect beads (Beckman Coulter, USA) and a 3:5 ratio of SpriSelect reagent volume to sample volume. cDNA was analyzed on an Agilent Bioanalyzer High Sensitivity DNA chip for qualitative control, fragmented for 5 min at 32° C., followed by end repair and A-tailing at 65° C. for 30 min, and then double-sided size selected with SpriSelect. Sequencing adaptors were ligated to the cDNA at 20° C. for 15 min. cDNA was amplified using a sample-specific index oligo as primer, followed by another round of double-sided size selection. Final libraries were analyzed on an Agilent Bioanalyzer High Sensitivity DNA chip for qualitative control purposes. cDNA libraries were sequenced on a HiSeq 4000 Illumina platform aiming for 50,000 reads per cell.
# Base calls were converted to reads using the Cell Ranger (10× Genomics; version 3.1) implementation of mkfastq and then aligned against our custom pig transcriptome using Cell Ranger's count function with SC3Pv3 chemistry and 5,000 expected cells per sample (51). Cell barcodes were filtered for high quality based on an optimized threshold of having at least 200 unique transcripts profiled, less than 10,000 total transcripts, and less than 10% of their transcriptome of mitochondrial origin (114).
# Unique molecular identifiers (UMIs) from each cell barcode were retained for all downstream analysis. Raw UMI counts were normalized with a scale factor of 10,000 UMIs per cell and subsequently natural log transformed with a pseudocount of 1 using the R package Seurat (version 3.1.1) (52). Highly variable genes were identified, and cells were scaled by regression to the fraction of mitochondrial transcripts. Aggregated data was then evaluated using uniform manifold approximation and projection (UMAP) analysis over the first 15 principal components (115). […]
# [8] = test system: porcine fibroblasts; assay: 3D organotypic scar culture system (strained collagen scaffolds), scRNA-seq; assay type: cell-based; conditions: 10% strain, 10 µM FAKI
# Text: as §1
# We isolated and cultured dermal fibroblasts from both healthy human and porcine skin samples. Fibroblasts were isolated by mechanical and enzymatic digestion and cultured under standard conditions until passage 3. […]
# We used a suture to paint nine Titanium(IV) oxide dots (Sigma-Aldrich 248576) on the surface of the central region of the gel to track and quantify the imposed strains. […]
# [9] = POD90, regenerative lineages 1 and 2
compound,measurement,setting,value
CN(c1ncccc1CNc1nc(Nc2ccc3c(c2)CC(=O)N3)ncc1C(F)(F)F)S(C)(=O)=O [FAKI],tumor growth,[1],blocks tumor growth
same,secretion of IP-10 (CXCL10),"[2]; POD 7, P<0.05",upregulated
same,number of infiltrating inflammatory cells (F4/80-positive macrophages),"[2]; early (POD 7, P<0.001) and late (POD 90, P<0.05) time points",significantly decreased
same,CD34 expression,[3]; P<0.0001,significantly increasing
same,APOE expression,[3]; P<0.01,significantly increasing
same,aSMA expression,[3]; P<0.01,significantly decreased
same,CXCL14 expression,[3]; P<0.05,significantly decreased
same,THBS4 expression,[3]; P<0.05,significantly decreased
same,collagen fiber length and alignment,"[4]; deep dermis, POD90, P<0.05",shorter and more randomly aligned
same,overall collagen deposition,"[4]; superficial and deep dermis, by decreasing fiber widths and architectural complexity",decreased
same,STSG firmness and stiffness (cutometer deformation),[5],less firm and less stiff
same,scar contracture at early time points,"[6]; POD7, P=0.09, POD21, P<0.05",blocked scar contracture
same,scar contracture,"[6]; POD28, change in scar area normalized to STSG area at first dressing change, untreated and blank hydrogel-treated STSGs over 70%",30%
same,number of DEGs between untreated STSG and STSG treated with FAKI,[7]; all other cell types,< 75
same,number of DEGs between untreated STSG and STSG treated with FAKI,[7]; fibroblasts,about 50
same,number of DEGs between untreated STSG and STSG treated with FAKI,"[7]; monocyte-lineage cells (macrophages, monocytes, dendritic cells)",> 170
same,number of DEGs between untreated STSG and STSG treated with FAKI,"[7]; neutrophils and lymphoid cells, each",around 100
same,adipogenic gene sets and stem cell markers (CD34 and NT5E) in fibroblasts,"[7]; POD90, lineages 1 and 2",promoted
same,fibroblast transcriptional state (CellRank lineages),"[7]; POD90, primarily lineages 1 and 2",transcriptional similarity to those from unwounded skin
same,"APOE, CLEC3B, CD34, and PPARG unspliced pre-mRNA in fibroblasts",[7]; [9],upregulation
same,pro-fibrotic genes in fibroblasts,[7]; [9],abrogation
same,"APOE, EGR1 and PRDX1 expression",[8],upregulation
same,"pro-fibrotic responses (CXCL14, THBS2, COL1A1 expression)",[8],abrogated
